Laboratory results published in ChEMBL document CHEMBL1250522 (Bioorg Med Chem, 2010).

Key:
[1] = Cytotoxicity against human multidrug-resistant LCC-6 cells after 72 hrs by SRB assay; conditions: LCC-6, 72 h
[2] = Cytotoxicity against human NCI/ADR cells after 72 hrs by SRB assay; conditions: NCI/ADR-RES
A2780 = test: Cytotoxicity against human A2780 cells after 72 hrs by SRB assay; assay type: functional, cell-based; conditions: A2780, 72 h
[3] = Cytotoxicity against human wild type LCC-6 cells after 72 hrs by SRB assay; conditions: LCC-6, 72 h
MCF7 = test: Cytotoxicity against human MCF7 cells after 72 hrs by SRB assay; assay type: functional, cell-based; conditions: MCF7, 72 h
CFPAC-1 = test: Cytotoxicity against human CFPAC-1 cells after 72 hrs by SRB assay; assay type: functional, cell-based; conditions: CFPAC-1, 72 h

SMILES | IC50 [1] | IC50 [2] | IC50 (A2780) | IC50 [3] | IC50 (MCF7) | IC50 (CFPAC-1)
CC(=O)OCc1cccc2c1[C@H](OC(=O)c1ccccc1)[C@H]1C[C@H](OC(=O)[C@H](O)[C@@H](NC(=O)c3ccccc3)c3ccccc3)CN1C(=O)C2 | 16.8 µM | 41.5 µM | 3.81 µM | 4.93 µM | 8.31 µM | 6.16 µM
O=C1CC/C=C\COc2ccccc2[C@H](NC(=O)c2ccccc2)[C@@H](O)C(=O)O[C@H]2C[C@@H]3[C@@H](OC(=O)c4ccccc4)c4c(cccc4C(=O)N3C2)CO1 | > 100 µM | > 100 µM | 14.8 µM | > 100 µM | > 100 µM | > 100 µM
CC(=O)OCc1cccc2c1[C@H](OC(=O)c1ccccc1)[C@H]1C[C@H](OC(=O)[C@H](O)[C@@H](NC(=O)c3ccccc3)c3ccccc3)CN1C2=O | > 100 µM | > 100 µM | 7.8 µM | 36.3 µM | 39.6 µM | > 100 µM
